Test results as given in US11339144B2 (Navitor Pharmaceuticals, Inc., priority 2017, dated 2022).

Legend:
[1] = molecular target: HA-GST-Rheb (GTP-γ-S loaded) activating mTORC1 (Homo sapiens (Human), UniProt Q15382); assay: Rheb-dependent in vitro kinase assay (Rheb-IVK; LanthaScreen or Western readout); format: biochemical; settings: Rheb-dependent in vitro kinase assay; read-out: IVK IC50
Rheb = Rheb (Homo sapiens (Human), UniProt Q15382); assay: Affinity Selection Mass Spectrometry (ASMS); format: binding; settings: affinity (R3/R0) in Affinity Selection Mass Spectrometry assay
Sequence of Rheb (Q15382 1-169 limits assumed): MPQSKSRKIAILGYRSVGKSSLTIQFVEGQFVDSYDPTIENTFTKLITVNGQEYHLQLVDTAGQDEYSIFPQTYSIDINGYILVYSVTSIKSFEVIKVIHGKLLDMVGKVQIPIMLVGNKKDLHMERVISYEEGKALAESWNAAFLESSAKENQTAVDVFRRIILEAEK
Description: Method 2 (Affinity Selection Mass Spectrometry
Protein: Rheb (19 KDa) in the following buffer: 20 mM Tris, pH 8.0, 200 mM NaCl, 2 mM DTT, 5 mM MgCl2 was prepared as under.
Human Rheb protein (I-169) was purified from BL21 (DE3) E. coli using a His-Smt-Rheb expression vector. The cell paste was lysed in lysis buffer (50 mM HEPES pH 7.5, 0.5 M NaCl, 5% Glycerol, 1% CHAPS, EDTA free protease inhibitor tablets, lysozyme to 1 mg/mL, benzonase 250U), sonicated, and purified on a HiTrap Ni Chelating Column (GE Healthcare) using the following buffer: 50 mM HEPES pH 7.5, 0.5 M NaCl, 5% Glycerol, and imidazole increasing in concentration from 5 mM to 500 mM. The His-Smt tag was cleaved using a U1p1 enzyme and dialyzed into 50 mM HEPES pH 7.5, 0.5 M NaCl, 5% Glycerol. The resultant protein was again purified on a Ni Chelating column to remove the U1p1 enzyme and His-Smt tag and then purified by size exclusion chromatography on a Sephacryl S-100 26/60 column into the following final buffer: 20 mM NaPhos pH 7.0, 100 mM NaCl, 5 mM MgCl2, 2 mM TCEP.
Concentrations: 60 μM Rheb, 180 μM GDP and 2 μM of each compound,
Ultrafiltration Filter (Sartorius, Germany) MW cutoff: 10 KDa
• (a) Sample preparation: Prepare sample for each group in 1.5 mL microcentrifuge tube according to the experimental design, total volume 550 μL. In a standard ASMS experiment there are two groups: Protein plus (P+L+) and protein minus (P−L+). • (b) Transfer 50 μL from the 550 μL to a vial as R0 sample. Incubate the rest solution for 30 min at room temperature. Then transfer the 500 μL into an ultrafiltration filter tube and centrifuge at 12×10^3 rpm for ˜10 min, leave about 50 μL solution (otherwise adjust this time). • (c) Add incubation buffer to the ultrafiltration filter tube to about 500 μL. Stir gently and centrifuge mixtures as above, leave about 50 μL solution. • (d) Repeat the step c. Transfer the remaining 50 μL upper layer solution to a new vial as R^3 sample. Sample Extraction: Add 150 μL MeCN to denature the protein completely. Centrifuge at 12×10^3 rpm for 5 min. Transfer the supernatant into LC-MS auto sampler vials for LC-MS analysis (5 uL injection).
Waters Acquity UPLC system, Waters ACQUITY UPLC BEH C18 column (2.1×50 mm, 1.7 μM); Mobile phase A: 0.1% formic acid solution, B: MeCN; 0.3 mL/min, 5 μL injection, gradient elution (Table 5).
Waters Synapt G1 Q-TOF system, positive or negative ion scan modes; Capillary voltage: 3.0 kV; Method: MSE; Mass range: m/z=100-1000; Source temperature: 120° C.; Desolvation temperature: 400° C.; Collision voltage: 35 V; Sampling Cone: 35 V; Extraction Cone: 4.0 V; Cone Gas: 50 L/h; Desolvation Gas: 800 L/h.

Sequence of HA-GST-Rheb (GTP-γ-S loaded) activating mTORC1 (Q15382 1-181): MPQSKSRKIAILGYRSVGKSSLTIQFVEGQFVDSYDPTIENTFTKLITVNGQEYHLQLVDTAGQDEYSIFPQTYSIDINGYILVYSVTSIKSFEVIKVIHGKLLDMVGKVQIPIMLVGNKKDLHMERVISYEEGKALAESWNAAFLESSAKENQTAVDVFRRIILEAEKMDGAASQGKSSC

| Compound | IC50 [1] | ASMS (R3/R0) (Rheb) |
| --- | --- | --- |
| CN1CCC(NC(=O)c2ccc(Cn3c(C(=O)O)cc4c(Br)cc(Oc5ccccc5)cc43)cc2)C1 (stereo not drawn) [I-53] | > 100 µM | B (an affinity (R3/R0) between 100% and 20%) |
| O=C(O)c1cc2c(-c3ccccc3)cc(Cl)cc2[nH]1 [I-54, 6-chloro-4-phenyl-1H-indole-2-carboxylic acid] | 100 to 300 µM | C (an affinity (R3/R0)<20%) |
| CN1CCC[C@@H]1CNC(=O)c1cc2c(Br)cc(Sc3ccc(Cl)c(Cl)c3)cc2[nH]1 [I-57] | > 100 µM | A (an affinity (R3/R0)>100%) |
| O=C1CCc2ccc(Oc3cc(Cl)cc4[nH]c(CO)cc34)cc2N1 [I-59] | > 100 µM | C (an affinity (R3/R0)<20%) |
| O=C(O)c1cc2c(Br)cc(Oc3ccccc3)cc2n1Cc1ccc(C(=O)N2CCNCC2)cc1 [I-61] | > 100 µM | C (an affinity (R3/R0)<20%) |
| CC(C)(C)OC(=O)N1CCN(C(=O)c2ccc(Cn3c(C(=O)O)cc4c(Br)cc(Oc5ccccc5)cc43)cc2)CC1 [I-62] | > 100 µM | B (an affinity (R3/R0) between 100% and 20%) |
| O=C(Nc1ncc[nH]1)c1cc2c(Sc3ccc(Cl)cc3)cc(Cl)cc2[nH]1 [I-63] | > 100 µM | A (an affinity (R3/R0)>100%) |
| Cc1cc(Sc2ccc(Cl)cc2)c2cc(C(=O)O)[nH]c2c1Br [I-64, 7-bromo-4-(4-chlorophenylthio)-6-methyl-1H-indole-2-carboxylic acid] | 10 to 100 µM | B (an affinity (R3/R0) between 100% and 20%) |
| O=C(O)c1cc2c(Br)cc(Oc3ccccc3)cc2n1Cc1ccc(C(=O)N(CCO)CCO)cc1 [I-67, 1-(4-(bis(2-hydroxyethyl)carbamoyl)benzyl)-4-bromo-6-phenoxy-1H-indole-2-carboxylic acid] | 10 to 100 µM | C (an affinity (R3/R0)<20%) |
| CN1CCN(C(=O)c2ccc(Cn3c(C(=O)O)cc4c(Br)cc(Oc5ccccc5)cc43)cc2)CC1 [I-68] | > 3 µM | C (an affinity (R3/R0)<20%) |
| CN(CCO)C(=O)c1ccc(Cn2c(C(=O)O)cc3c(Br)cc(Oc4ccccc4)cc32)cc1 [I-69, 4-bromo-1-(4-((2-hydroxyethyl)(methyl)carbamoyl)benzyl)-6-phenoxy-1H-indole-2-carboxylic acid] | 10 to 100 µM | C (an affinity (R3/R0)<20%) |
| OCc1cc2c(Sc3cccc4cccnc34)cc(Cl)cc2[nH]1 [I-74, (6-chloro-4-(quinolin-8-ylthio)-1H-indol-2-yl)methanol] | 10 to 100 µM | B (an affinity (R3/R0) between 100% and 20%) |
| OCc1cc2cc(SCc3ccc(Cl)cc3)c(Cl)cc2[nH]1 [I-76, (6-chloro-5-(4-chlorobenzylthio)-1H-indol-2-yl)methanol] | 10 to 100 µM | B (an affinity (R3/R0) between 100% and 20%) |
| CN1CCC(NC(=O)c2cc3c(Sc4ccc(Cl)cc4)cc(Cl)cc3[nH]2)CC1 [I-80] | > 100 µM | B (an affinity (R3/R0) between 100% and 20%) |
| Cc1ccc(Oc2cc(Cl)cc3[nH]c(C(=O)O)cc23)cc1C(F)(F)F [I-81, 6-chloro-4-(4-methyl-3-(trifluoromethyl)phenoxy)-1H-indole-2-carboxylic acid] | 10 to 100 µM | B (an affinity (R3/R0) between 100% and 20%) |
| CN1CCCN(C(=O)c2cc3c(Sc4ccc(Cl)cc4)cc(Cl)cc3[nH]2)CC1 [I-83] | > 100 µM | B (an affinity (R3/R0) between 100% and 20%) |

Further lines, with some results ahead:

| IC50 [1] | Compound | ASMS (R3/R0) (Rheb) |
| --- | --- | --- |
| 10 to 100 µM | CC(C)(O)CNC(=O)c1ccc(Cn2c(C(=O)O)cc3c(Br)cc(Oc4ccccc4)cc32)cc1 [I-55, 4-bromo-1-(4-(2-hydroxy-2-methylpropylcarbamoyl)benzyl)-6-phenoxy-1H-indole-2-carboxylic acid] | C (an affinity (R3/R0)<20%) |
| 10 to 100 µM | O=C(Nc1cccnc1)c1ccc(Cn2c(C(=O)O)cc3c(Br)cc(Oc4ccccc4)cc32)cc1 [I-56, 4-bromo-6-phenoxy-1-(4-(pyridin-3-ylcarbamoyl)benzyl)-1H-indole-2-carboxylic acid] | B (an affinity (R3/R0) between 100% and 20%) |
| 10 to 100 µM | Cc1cc(Sc2ccc(Cl)cc2)c2cc(C(=O)O)[nH]c2c1C [I-58, 4-(4-chlorophenylthio)-6,7-dimethyl-1H-indole-2-carboxylic acid] | B (an affinity (R3/R0) between 100% and 20%) |
| 10 to 100 µM | O=C(O)c1cc2c(OCc3ccc(Cl)cc3)cc(Cl)c(Cl)c2[nH]1 [I-60, 6,7-dichloro-4-(4-chlorobenzyloxy)-1H-indole-2-carboxylic acid] | B (an affinity (R3/R0) between 100% and 20%) |
| < 10 µM | CC(C)(C)c1cccc(Sc2cc(Cl)cc3[nH]c(C(=O)O)cc23)c1 [I-65, 4-(3-tert-butylphenylthio)-6-chloro-1H-indole-2-carboxylic acid] | B (an affinity (R3/R0) between 100% and 20%) |
| < 10 µM | O=C(O)c1cc2c(Sc3ccc(Cl)cc3Cl)cc(Cl)cc2n1Cc1ccc(-c2ccncc2)cc1 [I-70, 6-chloro-4-(2,4-dichlorophenylthio)-1-(4-(pyridin-4-yl)benzyl)-1H-indole-2-carboxylic acid] | A (an affinity (R3/R0)>100%) |
| < 10 µM | CN1CC(NC(=O)c2cc3c(Sc4ccc(Cl)cc4)cc(Cl)cc3[nH]2)C1 [I-71, 6-chloro-4-(4-chlorophenylthio)-N-(1-methylazetidin-3-yl)-1H-indole-2-carboxamide] | B (an affinity (R3/R0) between 100% and 20%) |
| < 10 µM | O=C(O)c1cc2c(Sc3ccc(Cl)cc3Cl)cc(Cl)cc2n1Cc1ccc(-c2cccc(CO)c2)cc1 [I-72, 6-chloro-4-(2,4-dichlorophenylthio)-1-((3′-(hydroxymethyl)biphenyl-4-yl)methyl)-1H-indole-2-carboxylic acid] | B (an affinity (R3/R0) between 100% and 20%) |
| < 10 µM | O=C(O)c1cc2c(Sc3ccc(Cl)cc3)cc(Cl)c(Cl)c2[nH]1 [I-73, 6,7-dichloro-4-(4-chlorophenylthio)-1H-indole-2-carboxylic acid] | A (an affinity (R3/R0)>100%) |
| < 10 µM | CN(C)C(=O)c1ccc(Cn2c(C(=O)O)cc3c(Cl)cc(Sc4ccc(Cl)c(Cl)c4)cc32)cc1 [I-75, 4-chloro-6-(3,4-dichlorophenylthio)-1-(4-(dimethylcarbamoyl)benzyl)-1H-indole-2-carboxylic acid] | B (an affinity (R3/R0) between 100% and 20%) |
| < 10 µM | Cc1c(-c2ccc(Cn3c(C(=O)O)cc4c(Sc5ccc(Cl)cc5Cl)cc(Cl)cc43)cc2)cnn1C [I-77, 6-chloro-4-(2,4-dichlorophenylthio)-1-(4-(1,5-dimethyl-1H-pyrazol-4-yl)benzyl)-1H-indole-2-carboxylic acid] | B (an affinity (R3/R0) between 100% and 20%) |
| < 10 µM | Nc1ccc(-c2ccc(Cn3c(C(=O)O)cc4c(Sc5ccc(Cl)cc5Cl)cc(Cl)cc43)cc2)cc1 [I-78, 1-((4′-aminobiphenyl-4-yl)methyl)-6-chloro-4-(2,4-dichlorophenylthio)-1H-indole-2-carboxylic acid] | B (an affinity (R3/R0) between 100% and 20%) |
| < 10 µM | Cc1ccc(Oc2cc(Cl)cc3[nH]c(CO)cc23)cc1C(F)(F)F [I-82, (6-Chloro-4-(4-methyl-3-(trifluoromethyl)phenoxy)-1H-indol-2-yl)methanol] | B (an affinity (R3/R0) between 100% and 20%) |
| < 10 µM | O=C(O)c1cc2c(Sc3ccc(Oc4ccc(Cl)cc4)cc3)cc(Cl)cc2[nH]1 [I-84, 6-chloro-4-(4-(4-chlorophenoxy)phenylthio)-1H-indole-2-carboxylic acid] | B (an affinity (R3/R0) between 100% and 20%) |
